Data published in article PMC11638965, “Leveraging Dual-Ligase Recruitment to Enhance Protein Degradation via a Heterotrivalent Proteolysis Targeting Chimera” (Journal of the American Chemical Society, 2024).
Entries after “also recorded” stand apart in the source; their conditions may differ. Like-named read-outs stand apart in the source and are kept apart here.

What was measured:
[1] = system: RKO CRBN/VHL dKO cells; experiment: Cell viability assay (CellTiter-Glo); type: cell-based, human; details: read-out: EC50 RKO CRBN/VHL dKO
Protocol: (§1) RKO WT, VHL KO, CRBN KO and CRBN/VHL dKO cells were cultured in Dulbecco’s modified Eagle’s medium supplemented with 10% FCS and 1% penicillin–streptomycin. RKO CRBN KO and VHL KO were generated previously.[45] RKO CRBN/VHL dKO cells were generated by transiently expressing pSpCas9(BB)-2A-GFP (PX458) (Addgene 48138) loaded with a short guide RNA (sgRNA) targeting VHL (Fwd: […], Rev: […]) in RKO CRBN KO cells. Clones were single cell seeded and checked for VHL and CRBN double deletion via Western blot or PCR on genomic DNA (gDNA).
(§2) Cells were seeded in 96-well plates at a cell density of 3750 cells per well and treated for 3 days with DMSO or drug at ten √10 serial diluted concentrations. Starting concentration for all drugs was 10 μM, and each treatment was performed in biological triplicates. Cell viability was assessed using the CellTiter-Glo assay (CellTiter-Glo Luminescent Cell Viability Assay, Promega G7573) according to manufacturer instructions. Luminescence signal was measured on a Multilabel Plate Reader Platform Victor X3 model 2030 (PerkinElmer). Survival curves and EC50 values were determined using GraphPad Prism v.10.0.3 by fitting a nonlinear regression to the log10-transformed drug concentration and the relative viability after normalization of each data point to the mean luminescence of the lowest drug concentration.

[2] = target: CRBN (Homo sapiens, UniProt Q96SW2); experiment: NanoBRET lytic and live cell target engagement assay; type: binding; design: host or cells: HEK293, transient; details: for IC50: HEK293 cells with NanoLuc-CRBN, CRBN fluorescent tracer
CRBN, sequence (Q96SW2 whole entry, the tested form may be a part): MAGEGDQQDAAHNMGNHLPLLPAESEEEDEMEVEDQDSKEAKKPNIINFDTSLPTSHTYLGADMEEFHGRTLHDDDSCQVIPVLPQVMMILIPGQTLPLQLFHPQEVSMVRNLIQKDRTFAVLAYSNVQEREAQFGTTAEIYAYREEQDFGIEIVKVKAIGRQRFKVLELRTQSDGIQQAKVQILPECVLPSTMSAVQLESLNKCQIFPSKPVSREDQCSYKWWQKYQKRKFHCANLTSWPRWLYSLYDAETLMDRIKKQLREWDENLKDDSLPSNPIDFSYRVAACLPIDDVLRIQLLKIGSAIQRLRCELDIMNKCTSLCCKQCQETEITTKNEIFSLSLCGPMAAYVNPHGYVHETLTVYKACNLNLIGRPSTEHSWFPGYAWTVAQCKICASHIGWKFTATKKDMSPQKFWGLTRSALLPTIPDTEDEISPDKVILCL
CRBN, sequence (Q16531 whole entry partner, the tested form may be a part): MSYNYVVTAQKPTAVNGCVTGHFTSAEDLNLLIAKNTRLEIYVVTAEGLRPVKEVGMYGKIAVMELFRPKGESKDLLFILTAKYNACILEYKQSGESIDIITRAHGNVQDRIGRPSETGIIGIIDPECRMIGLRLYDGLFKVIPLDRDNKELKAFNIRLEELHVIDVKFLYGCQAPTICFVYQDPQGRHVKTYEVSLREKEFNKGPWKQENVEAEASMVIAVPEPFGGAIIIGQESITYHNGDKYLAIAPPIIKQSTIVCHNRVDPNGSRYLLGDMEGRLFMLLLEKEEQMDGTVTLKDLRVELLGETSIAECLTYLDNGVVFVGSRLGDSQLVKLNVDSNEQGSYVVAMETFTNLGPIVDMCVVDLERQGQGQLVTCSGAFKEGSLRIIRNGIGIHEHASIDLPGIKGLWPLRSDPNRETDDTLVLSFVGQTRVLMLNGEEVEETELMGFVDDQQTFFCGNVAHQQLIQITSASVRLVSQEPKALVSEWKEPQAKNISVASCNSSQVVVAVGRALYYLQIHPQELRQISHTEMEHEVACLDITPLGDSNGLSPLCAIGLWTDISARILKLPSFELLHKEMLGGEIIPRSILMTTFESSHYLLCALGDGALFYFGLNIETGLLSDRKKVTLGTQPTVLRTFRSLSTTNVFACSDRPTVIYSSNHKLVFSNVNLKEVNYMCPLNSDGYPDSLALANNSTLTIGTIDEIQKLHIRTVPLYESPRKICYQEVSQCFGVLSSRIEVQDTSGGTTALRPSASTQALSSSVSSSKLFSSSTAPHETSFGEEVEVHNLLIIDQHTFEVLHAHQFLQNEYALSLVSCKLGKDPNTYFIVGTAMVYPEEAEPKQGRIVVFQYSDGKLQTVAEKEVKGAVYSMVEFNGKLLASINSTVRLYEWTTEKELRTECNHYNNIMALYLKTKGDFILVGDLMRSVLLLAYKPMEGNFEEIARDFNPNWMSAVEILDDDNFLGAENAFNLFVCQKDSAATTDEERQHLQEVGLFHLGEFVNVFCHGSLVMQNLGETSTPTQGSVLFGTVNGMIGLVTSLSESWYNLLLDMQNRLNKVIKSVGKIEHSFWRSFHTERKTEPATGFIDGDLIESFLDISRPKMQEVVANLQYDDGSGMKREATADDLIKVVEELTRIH
Protocol: CRBN (N2910, Promega) and VHL (N2930, Promega) NanoBRET target engagement assays were performed according to manufacturer’s instructions. Transfection complexes were prepared using 1 mL Opti-MEM, 30 μL FuGENE HD, and either 9 μg/mL DDB1 Expression Vector and 1 μg/mL NanoLuc-CRBN fusion vector, or 9 μg/mL Transfection Carrier DNA and 1 μg/mL VHL-NanoLuc fusion vector. Transfection complexes were allowed to form for 20 min at room temperature, then were added to 20 mL of HEK293 cells at density of 200,000 cells/mL. Transfected HEK293 cells were plated in a T75 flask and allowed to express protein overnight. The next day, 85 μL of transfected cells (at 200,000 cells/mL) were replated in white nonbinding 96-well plates for live and lytic target engagement measurements. For live mode, a 100x solution of NanoBRET tracer was prepared using 100% DMSO (50 μM for CRBN live-cell, 100 μM for VHL live-cell). 100x tracer was used to prepare 20× tracer using tracer dilution buffer. PROTACs or test compounds were prepared at 10x final concentrations in Opti-MEM. Five μL of the prepared tracer was then dispensed to each well and the plate was mixed on an orbital shaker at 300 rpm for 15 s. Ten μL of each 10x PROTAC dilution was added to the cells and the plate was mixed again before being incubated at a 37 °C, 5% CO2 incubator for 2 or 5 h (as indicated in each figure). After incubation, a 50 μL of a 3X substrate solution (containing 30 μL NanoBRET Nano-Glo Substrate, 10 μL Extracellular NanoLuc inhibitor, and 4960 μL of Opti-MEM) was added to each well. Plates were incubated for 2–3 min at room temperature, then donor emission (450 nm) and acceptor emission (at 610 nm) values were read using a GloMax Discover. For lytic mode, the following changes were made. […] Plates were incubated in darkness for 5 min after digitonin addition to allow for permeabilization. 50 μL of 3X substrate (30 μL NanoBRET Nano-Glo substrate and 4970 μL Opti-MEM) was added to each well and plates were incubated for 1 min at room temperature before being read on a GloMax Discover as above.

[3] = system: RKO CRBN KO cells; experiment: Cell viability assay (CellTiter-Glo); type: cell-based, human; details: 500 pM to 10 μM, 3 days (Figure 10, Table S6)
[4] = system: RKO CRBN KO cells; experiment: Cell viability assay (CellTiter-Glo); type: cell-based, human; details: 316 pM to 10 μM, 3 days, n = 3 (Figures 5 and 8C, Table S5)
Protocol: as §1, §2

[5] = system: RKO VHL KO cells; experiment: Cell viability assay (CellTiter-Glo); type: cell-based, human
Protocol: as §1, §2

[6] = Homo sapiens, 72 h, 316 pM to 10 μM, 3 days, n = 3 (Figures 5 and 8C, Table S5)
[7] = live cells 2 h, read-out: IC50 (Live Cell), Target: CRBN
[8] = lysed with digitonin, read-out: IC50 (Lytic Cell), Target: CRBN
[9] = Homo sapiens, 72 h, 500 pM to 10 μM, 3 days (Figure 10, Table S6)

Structure (SMILES)	EC50 [1, 6]	IC50 [2, 7]	IC50 [2, 8]	EC50 ([3]; Homo sapiens, 72 h)	EC50 ([4]; listed as 27)	EC50 ([4]; Homo sapiens, 72 h)	EC50 ([5]; 316 pM to 10 μM, 3 days, n = 3 (Figures 5 and 8C, Table S5), listed as 27)	EC50 [5, 6]	EC50 [5, 9]	EC50 [1, 9]	fold stronger engagement of CRBN over 26, live cell format ([2]; 27 vs 26)	EC50 ([4]; listed as 86)	EC50 ([5]; 316 pM to 10 μM, 3 days, n = 3 (Figures 5 and 8C, Table S5), listed as 86)	EC50 ([3]; listed as 94)	EC50 ([1]; 500 pM to 10 μM, 3 days (Figure 10, Table S6), listed as 94)	CRBN engagement compared to 27 (in words) ([2]; lytic, live cell 2 h and 5 h (Figure S6), listed as 94)
Cc1ncsc1-c1ccc(CNC(=O)[C@@H]2C[C@@H](O)CN2C(=O)[C@@H](NC(=O)COCC(C)(COCCOCCOCCNc2cc3c(cc2F)C(=O)N(C2CCC(=O)NC2=O)C3=O)COCCOCCOCCOC(=O)C[C@@H]2N=C(c3ccc(Cl)cc3)c3c(sc(C)c3C)-n3c(C)nnc32)C(C)(C)C)cc1 (mixture of isomers) [AB3063 (26), (17S)-11-((2-(2-(2-((2-(2,6-dioxopiperidin-3-yl)-6-fluoro-1,3-dioxoisoindolin-5-yl)amino)ethoxy)ethoxy)ethoxy)methyl)-17-((2S,4R)-4-hydroxy-2-((4-(4-methylthiazol-5-yl)benzyl)carbamoyl)pyrrolidine-1-carbonyl)-11,18,18-trimethyl-15-oxo-3,6,9,13-tetraoxa-16-azanonadecyl 2-((S)-4-(4-chlorophenyl)-2,3,9-trimethyl-6H-thieno[3,2-f][1,2,4]triazolo[4,3-a][1,4]diazepin-6-yl)acetate]	2240 nM	1560 nM	412 nM													
Cc1ncsc1-c1ccc([C@H](C)NC(=O)[C@@H]2C[C@@H](O)CN2C(=O)[C@@H](NC(=O)COCC(C)(COCCOCCOCCNc2cc3c(cc2F)C(=O)N(C2CCC(=O)NC2=O)C3=O)COCCOCCOCCOC(=O)C[C@@H]2N=C(c3ccc(Cl)cc3)c3c(sc(C)c3C)-n3c(C)nnc32)C(C)(C)C)cc1 (mixture of isomers) [AB3067 (27), (17S)-11-((2-(2-(2-((2-(2,6-dioxopiperidin-3-yl)-6-fluoro-1,3-dioxoisoindolin-5-yl)amino)ethoxy)ethoxy)ethoxy)methyl)-17-((2S,4R)-4-hydroxy-2-(((S)-1-(4-(4-methylthiazol-5-yl)phenyl)ethyl)carbamoyl)pyrrolidine-1-carbonyl)-11,18,18-trimethyl-15-oxo-3,6,9,13-tetraoxa-16-azanonadecyl 2-((S)-4-(4-chlorophenyl)-2,3,9-trimethyl-6H-thieno[3,2-f][1,2,4]triazolo[4,3-a][1,4]diazepin-6-yl)acetate]	988 nM	624 nM	190 nM	82 nM	133 nM	180 nM	180 nM	133 nM	110 nM	818 nM	2.5 fold					
Cc1ncsc1-c1ccc(CNC(=O)[C@@H]2C[C@@H](O)CN2C(=O)[C@@H](NC(=O)COCC(COCCOCCOCCNc2cc3c(cc2F)C(=O)N(C2CCC(=O)NC2=O)C3=O)(COCCOCCOCCOC(=O)C[C@@H]2N=C(c3ccc(Cl)cc3)c3c(sc(C)c3C)-n3c(C)nnc32)COCCOCCOCCOC(=O)C[C@@H]2N=C(c3ccc(Cl)cc3)c3c(sc(C)c3C)-n3c(C)nnc32)C(C)(C)C)cc1 (mixture of isomers) [AB3124 (86)]	16 nM					34 nM		62 nM				62 nM	34 nM			
Cc1ncsc1-c1ccc([C@H](C)NC(=O)[C@@H]2C[C@H](O)CN2C(=O)[C@@H](NC(=O)COCC(C)(COCCOCCOCCNc2cc3c(cc2F)C(=O)N(C2CCC(=O)NC2=O)C3=O)COCCOCCOCCOC(=O)C[C@@H]2N=C(c3ccc(Cl)cc3)c3c(sc(C)c3C)-n3c(C)nnc32)C(C)(C)C)cc1 (mixture of isomers) [cis-AB3067 (94), (17S)-11-((2-(2-(2-((2-(2,6-dioxopiperidin-3-yl)-6-fluoro-1,3-dioxoisoindolin-5-yl)amino)ethoxy)ethoxy)ethoxy)methyl)-17-((2S,4S)-4-hydroxy-2-(((S)-1-(4-(4-methylthiazol-5-yl)phenyl)ethyl)carbamoyl)pyrrolidine-1-carbonyl)-11,18,18-trimethyl-15-oxo-3,6,9,13-tetraoxa-16-azanonadecyl 2-((S)-4-(4-chlorophenyl)-2,3,9-trimethyl-6H-thieno[3,2-f][1,2,4]triazolo[4,3-a][1,4]diazepin-6-yl)acetate]				832 nM					48 nM	804 nM				~820 nM	~820 nM	slight improvement in binding to CRBN after 2 h; also recorded: even greater binding to CRBN after 5 h compared to 27
Cc1ncsc1-c1ccc([C@H](C)NC(=O)[C@@H]2C[C@H](O)CN2C(=O)[C@@H](NC(=O)COCC(C)(COCCOCCOCCNc2cc3c(cc2F)C(=O)N(C2CCC(=O)N(C)C2=O)C3=O)COCCOCCOCCOC(=O)C[C@@H]2N=C(c3ccc(Cl)cc3)c3c(sc(C)c3C)-n3c(C)nnc32)C(C)(C)C)cc1 (mixture of isomers) [neg-cis-AB3067 (95), (17S)-11-((2-(2-(2-((6-fluoro-2-(1-methyl-2,6-dioxopiperidin-3-yl)-1,3-dioxoisoindolin-5-yl)amino)ethoxy)ethoxy)ethoxy)methyl)-17-((2S,4S)-4-hydroxy-2-(((S)-1-(4-(4-methylthiazol-5-yl)phenyl)ethyl)carbamoyl)pyrrolidine-1-carbonyl)-11,18,18-trimethyl-15-oxo-3,6,9,13-tetraoxa-16-azanonadecyl 2-((S)-4-(4-chlorophenyl)-2,3,9-trimethyl-6H-thieno[3,2-f][1,2,4]triazolo[4,3-a][1,4]diazepin-6-yl)acetate]				586 nM					522 nM	657 nM						
